Source: ChEMBL document CHEMBL1201862, “PubChem BioAssay data set” (2004)
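Dose response: 5 concentrations. Exposure: 48 h. Format: 96-well plates. Endpoint: linear interpolation; highest concentration if not reached. GI50 marks 50% less growth.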 Calls of active or inactive are those of the source. Rule as the data show it: active = GI50 up to about 1.1 µM and inactive = higher.

Tests used:
Test in all cases: DTP human tumour cell line panel, 48 h
A498 = system: A498
CAKI-1 = system: CAKI-1
CCRF-CEM = system: CCRF-CEM
COLO 205 = system: COLO 205
HL-60 = system: HL-60
LOX IMVI = system: LOX IMVI
M14 = system: M14
Malme-3M = system: Malme-3M
NCI-H23 = system: NCI-H23
NCI-H522 = system: NCI-H522
OVCAR-3 = system: OVCAR-3
RXF 393 = system: RXF 393
SF-295 = system: SF-295
SF-539 = system: SF-539
SK-MEL-28 = system: SK-MEL-28
SK-MEL-2 = system: SK-MEL-2
SNB-19 = system: SNB-19
TK-10 = system: TK-10
U-251 = system: U-251
UO-31 = system: UO-31

Row | SMILES | GI50 (A498) | GI50 (CAKI-1) | GI50 (CCRF-CEM) | GI50 (COLO 205) | GI50 (HL-60) | GI50 (LOX IMVI) | GI50 (M14) | GI50 (Malme-3M) | GI50 (NCI-H23) | GI50 (NCI-H522) | GI50 (OVCAR-3) | GI50 (RXF 393) | GI50 (SF-295) | GI50 (SF-539) | GI50 (SK-MEL-28) | GI50 (SK-MEL-2) | GI50 (SNB-19) | GI50 (TK-10) | GI50 (U-251) | GI50 (UO-31)
1 | CNS(=O)(=O)NN(C)S(=O)(=O)c1ccc(F)cc1 | > 100 µM (inactive) | > 100 µM (inactive) | > 100 µM (inactive) | > 100 µM (inactive) | > 100 µM (inactive) | 90.2 µM (inactive) | > 100 µM (inactive) | > 100 µM (inactive) | > 100 µM (inactive) | > 100 µM (inactive) | > 100 µM (inactive) | > 100 µM (inactive) | > 100 µM (inactive) | > 100 µM (inactive) | > 100 µM (inactive) | > 100 µM (inactive) | > 100 µM (inactive) | > 100 µM (inactive) | > 100 µM (inactive) | > 100 µM (inactive)
2 | COC1=C2CC(C)CC(OC)C(O)C(C)/C=C(\C)C(OC(N)=O)C(OC)/C=C\C=C(/C)C(=O)NC(=C(/C=N/C(C)(C)C)C1=O)C2=O (stereo unspecified) | 3.57 µM (inactive) | 3.08 µM (inactive) | 0.857 µM (active) | 1.31 µM (inactive) | 0.479 µM (active) | 4.41 µM (inactive) | – | 1.89 µM (inactive) | 0.849 µM (active) | 0.279 µM (active) | 0.585 µM (active) | 0.351 µM (active) | 5.02 µM (inactive) | 1.66 µM (inactive) | 4.97 µM (inactive) | 4.85 µM (inactive) | 4.85 µM (inactive) | – | 1.43 µM (inactive) | 8.81 µM (inactive)
3 | CCOC(=O)/C=C/c1c(C)[nH]c(=O)[nH]c1=O | > 250 µM (inactive) | 191 µM (inactive) | > 250 µM (inactive) | > 250 µM (inactive) | > 250 µM (inactive) | > 250 µM (inactive) | – | > 250 µM (inactive) | > 250 µM (inactive) | 102 µM (inactive) | > 242 µM (inactive) | > 237 µM (inactive) | > 250 µM (inactive) | > 250 µM (inactive) | > 250 µM (inactive) | > 250 µM (inactive) | > 250 µM (inactive) | – | > 250 µM (inactive) | > 250 µM (inactive)
4 | CN(CCCNc1ccc2ncn3c4ccccc4c(=O)c1c23)CCCN1C(=O)c2cccc3cc([N+](=O)[O-])cc(c23)C1=O | 1.4 µM (inactive) | 0.029 µM (active) | 0.0614 µM (active) | 0.00815 µM (active) | 0.0358 µM (active) | 0.00771 µM (active) | 0.0481 µM (active) | 0.0244 µM (active) | 0.0208 µM (active) | 0.00775 µM (active) | 1.1 µM (active) | 0.0267 µM (active) | 0.0134 µM (active) | 0.00548 µM (active) | 1.12 µM (inactive) | 1.58 µM (inactive) | 0.0401 µM (active) | 0.00221 µM (active) | 0.00966 µM (active) | 0.015 µM (active)
5 | CC1(C)O[C@@H](C[C@]2(C#N)C[C@H](CCl)OC(C)(C)O2)C[C@@H](C#N)O1 | > 100 µM (inactive) | > 100 µM (inactive) | > 100 µM (inactive) | > 100 µM (inactive) | > 100 µM (inactive) | > 100 µM (inactive) | > 100 µM (inactive) | > 100 µM (inactive) | > 100 µM (inactive) | > 100 µM (inactive) | > 100 µM (inactive) | > 100 µM (inactive) | > 100 µM (inactive) | > 100 µM (inactive) | > 100 µM (inactive) | > 100 µM (inactive) | > 100 µM (inactive) | > 100 µM (inactive) | > 100 µM (inactive) | > 100 µM (inactive)
6 | C=C1C[C@@H]2C[C@@H](C)CC(O)[C@]2(CCCN)C1O (stereo partly specified) | > 100 µM (inactive) | > 100 µM (inactive) | > 100 µM (inactive) | > 100 µM (inactive) | > 100 µM (inactive) | > 100 µM (inactive) | > 100 µM (inactive) | > 100 µM (inactive) | > 100 µM (inactive) | > 100 µM (inactive) | > 100 µM (inactive) | > 100 µM (inactive) | > 100 µM (inactive) | > 100 µM (inactive) | > 100 µM (inactive) | > 100 µM (inactive) | > 100 µM (inactive) | > 100 µM (inactive) | > 100 µM (inactive) | > 100 µM (inactive)
